Measured values as given in ChEMBL document CHEMBL5465560, “Selectivity Literature for EUbOPEN Chemogenomic Library” (2024).

Tests used:
[1] = target: Rho-associated protein kinase 1 (Homo sapiens) (UniProt Q13464); experiment: Selectivity interaction (KinomeScan (DiscoverX)) EUB0000229b ROCK1; details: at 10 µM
[2] = target: Ribosomal protein S6 kinase beta-2 (Homo sapiens) (UniProt Q9UBS0); experiment: Selectivity interaction (Kinase panel (KiNativ target engagement assay in Jurkat cells)) EUB0001635a RPS6KB2; format: cell-based; details: Selectivity number of off-targets 0.0, Selectivity number of targets 233.0, Source Knowledge https://www.sciencedirect.com/science/article/pii/S2451945619300674?via%3Dihub, at 1 µM
[3] = target: T1, Serine/threonine-protein kinase D1 (Homo sapiens) (UniProt Q15139); details: at 10 µM
T1 sequence (whole entry): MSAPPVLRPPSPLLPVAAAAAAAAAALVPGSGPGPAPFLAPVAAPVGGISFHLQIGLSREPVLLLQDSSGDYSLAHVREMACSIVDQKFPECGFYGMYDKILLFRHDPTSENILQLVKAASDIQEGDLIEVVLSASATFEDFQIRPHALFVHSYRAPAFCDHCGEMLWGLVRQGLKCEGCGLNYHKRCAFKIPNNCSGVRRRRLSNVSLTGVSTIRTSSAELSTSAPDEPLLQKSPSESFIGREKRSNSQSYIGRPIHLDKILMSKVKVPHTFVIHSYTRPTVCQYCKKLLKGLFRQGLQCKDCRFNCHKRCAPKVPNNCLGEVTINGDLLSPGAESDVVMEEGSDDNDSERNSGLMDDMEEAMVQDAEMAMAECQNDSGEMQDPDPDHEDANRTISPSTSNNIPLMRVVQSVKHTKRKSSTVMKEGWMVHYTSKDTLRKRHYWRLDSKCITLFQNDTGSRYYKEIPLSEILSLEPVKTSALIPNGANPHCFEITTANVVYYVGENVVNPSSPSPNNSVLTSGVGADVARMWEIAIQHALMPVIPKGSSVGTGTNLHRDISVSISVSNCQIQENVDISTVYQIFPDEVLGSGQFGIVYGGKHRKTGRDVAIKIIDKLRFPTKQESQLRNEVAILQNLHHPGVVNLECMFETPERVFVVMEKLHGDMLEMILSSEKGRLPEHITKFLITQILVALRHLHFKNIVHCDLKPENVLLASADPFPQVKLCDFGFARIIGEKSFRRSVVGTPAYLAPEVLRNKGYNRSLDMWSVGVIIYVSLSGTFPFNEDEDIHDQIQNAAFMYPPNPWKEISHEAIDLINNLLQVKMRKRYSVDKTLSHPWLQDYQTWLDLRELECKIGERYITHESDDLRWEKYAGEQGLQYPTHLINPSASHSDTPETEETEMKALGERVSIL

[4] = target: T2, Phosphatidylinositol 5-phosphate 4-kinase type-2 beta (Homo sapiens) (UniProt P78356); details: at 10 µM
T2 sequence (whole entry): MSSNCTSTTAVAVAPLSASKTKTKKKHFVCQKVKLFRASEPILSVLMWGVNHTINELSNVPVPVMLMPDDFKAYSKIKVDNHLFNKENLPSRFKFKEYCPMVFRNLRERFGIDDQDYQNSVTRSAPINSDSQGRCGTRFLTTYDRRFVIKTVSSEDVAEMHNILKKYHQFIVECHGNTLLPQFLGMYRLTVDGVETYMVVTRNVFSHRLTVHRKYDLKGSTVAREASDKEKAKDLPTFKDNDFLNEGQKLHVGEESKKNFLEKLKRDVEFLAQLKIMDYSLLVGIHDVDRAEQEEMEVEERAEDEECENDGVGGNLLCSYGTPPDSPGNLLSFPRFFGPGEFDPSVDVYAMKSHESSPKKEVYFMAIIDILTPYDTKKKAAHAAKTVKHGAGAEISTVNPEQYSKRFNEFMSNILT

[5] = target: Non-receptor tyrosine-protein kinase TYK2 (Homo sapiens, UniProt P29597); experiment: Selectivity interaction (ActivX KiNativ screen (kinase selectivity in THP-1 cell lysates)) EUB0000639a TYK2; format: subcellular; details: lysate, at 0.01 µM
[6] = target: T3, Serine/threonine-protein kinase Nek1 (Homo sapiens) (UniProt Q96PY6); experiment: Selectivity interaction (KinomeScan (DiscoverX)) EUB0000618a NEK1; details: at 10 µM
T3 sequence (whole entry): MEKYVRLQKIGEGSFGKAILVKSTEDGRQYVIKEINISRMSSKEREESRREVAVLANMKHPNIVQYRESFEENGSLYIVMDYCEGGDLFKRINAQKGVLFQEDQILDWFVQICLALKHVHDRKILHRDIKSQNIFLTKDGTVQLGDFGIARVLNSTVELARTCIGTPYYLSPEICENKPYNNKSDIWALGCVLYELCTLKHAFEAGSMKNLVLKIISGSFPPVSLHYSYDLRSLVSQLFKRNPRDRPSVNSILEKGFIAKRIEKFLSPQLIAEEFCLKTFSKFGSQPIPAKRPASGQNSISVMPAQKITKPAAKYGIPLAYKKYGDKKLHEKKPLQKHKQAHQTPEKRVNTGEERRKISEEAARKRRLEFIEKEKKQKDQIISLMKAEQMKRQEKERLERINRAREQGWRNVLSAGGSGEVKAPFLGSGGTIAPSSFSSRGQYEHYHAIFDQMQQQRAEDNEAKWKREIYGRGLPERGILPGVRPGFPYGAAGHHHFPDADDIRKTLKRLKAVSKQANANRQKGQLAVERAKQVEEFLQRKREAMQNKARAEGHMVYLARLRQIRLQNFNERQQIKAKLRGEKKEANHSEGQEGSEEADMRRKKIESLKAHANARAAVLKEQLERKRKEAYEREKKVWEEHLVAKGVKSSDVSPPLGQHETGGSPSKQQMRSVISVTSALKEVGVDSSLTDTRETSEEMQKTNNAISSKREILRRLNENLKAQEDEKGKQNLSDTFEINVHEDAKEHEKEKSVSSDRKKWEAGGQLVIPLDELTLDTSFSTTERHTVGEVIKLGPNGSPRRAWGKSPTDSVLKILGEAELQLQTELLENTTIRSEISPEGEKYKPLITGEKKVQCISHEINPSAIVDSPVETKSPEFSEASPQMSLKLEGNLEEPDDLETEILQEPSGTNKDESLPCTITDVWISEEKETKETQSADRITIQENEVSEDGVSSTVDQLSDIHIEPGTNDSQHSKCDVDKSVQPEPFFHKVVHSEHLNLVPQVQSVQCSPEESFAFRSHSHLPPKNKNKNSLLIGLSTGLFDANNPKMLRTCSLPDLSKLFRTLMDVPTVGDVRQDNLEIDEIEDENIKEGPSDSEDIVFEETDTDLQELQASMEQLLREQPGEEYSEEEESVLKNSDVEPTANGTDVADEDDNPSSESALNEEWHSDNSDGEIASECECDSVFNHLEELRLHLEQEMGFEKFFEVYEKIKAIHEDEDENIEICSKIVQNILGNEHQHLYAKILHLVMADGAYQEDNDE

[7] = tested on: Tyrosine-protein kinase ABL1 (Homo sapiens), P00519 [F317L]; details: at 10 µM
Tyrosine-protein kinase ABL1 (Homo sapiens), P00519 [F317L], sequence (P00519 whole entry F317L): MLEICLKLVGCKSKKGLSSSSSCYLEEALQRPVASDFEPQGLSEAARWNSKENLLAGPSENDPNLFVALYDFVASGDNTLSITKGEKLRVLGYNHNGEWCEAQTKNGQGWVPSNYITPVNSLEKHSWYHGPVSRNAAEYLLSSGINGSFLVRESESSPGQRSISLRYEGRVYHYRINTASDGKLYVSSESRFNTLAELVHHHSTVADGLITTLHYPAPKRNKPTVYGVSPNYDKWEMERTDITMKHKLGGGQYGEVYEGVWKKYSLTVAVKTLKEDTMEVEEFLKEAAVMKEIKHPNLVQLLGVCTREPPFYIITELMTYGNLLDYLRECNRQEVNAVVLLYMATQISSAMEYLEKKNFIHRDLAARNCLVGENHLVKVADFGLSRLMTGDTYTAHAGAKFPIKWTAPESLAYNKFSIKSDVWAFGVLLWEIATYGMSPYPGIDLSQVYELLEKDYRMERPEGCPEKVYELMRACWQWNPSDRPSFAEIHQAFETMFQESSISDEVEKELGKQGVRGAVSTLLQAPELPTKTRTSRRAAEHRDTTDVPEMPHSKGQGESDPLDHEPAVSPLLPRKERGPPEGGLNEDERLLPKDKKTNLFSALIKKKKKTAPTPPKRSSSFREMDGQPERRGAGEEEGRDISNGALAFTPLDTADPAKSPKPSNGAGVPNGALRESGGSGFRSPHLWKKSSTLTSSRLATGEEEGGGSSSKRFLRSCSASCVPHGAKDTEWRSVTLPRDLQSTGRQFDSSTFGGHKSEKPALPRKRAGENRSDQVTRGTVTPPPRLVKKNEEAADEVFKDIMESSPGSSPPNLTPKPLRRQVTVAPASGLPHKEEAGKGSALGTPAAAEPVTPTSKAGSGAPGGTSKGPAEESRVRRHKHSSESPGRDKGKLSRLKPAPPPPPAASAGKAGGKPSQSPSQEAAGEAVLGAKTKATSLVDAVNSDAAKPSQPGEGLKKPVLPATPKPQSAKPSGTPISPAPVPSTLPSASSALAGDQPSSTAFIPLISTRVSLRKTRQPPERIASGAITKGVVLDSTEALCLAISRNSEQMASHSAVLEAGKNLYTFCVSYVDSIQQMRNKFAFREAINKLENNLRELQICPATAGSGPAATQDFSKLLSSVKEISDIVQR

Rho-associated protein kinase 1 (Homo sapiens), sequence (Q13464 2-1354 limits assumed): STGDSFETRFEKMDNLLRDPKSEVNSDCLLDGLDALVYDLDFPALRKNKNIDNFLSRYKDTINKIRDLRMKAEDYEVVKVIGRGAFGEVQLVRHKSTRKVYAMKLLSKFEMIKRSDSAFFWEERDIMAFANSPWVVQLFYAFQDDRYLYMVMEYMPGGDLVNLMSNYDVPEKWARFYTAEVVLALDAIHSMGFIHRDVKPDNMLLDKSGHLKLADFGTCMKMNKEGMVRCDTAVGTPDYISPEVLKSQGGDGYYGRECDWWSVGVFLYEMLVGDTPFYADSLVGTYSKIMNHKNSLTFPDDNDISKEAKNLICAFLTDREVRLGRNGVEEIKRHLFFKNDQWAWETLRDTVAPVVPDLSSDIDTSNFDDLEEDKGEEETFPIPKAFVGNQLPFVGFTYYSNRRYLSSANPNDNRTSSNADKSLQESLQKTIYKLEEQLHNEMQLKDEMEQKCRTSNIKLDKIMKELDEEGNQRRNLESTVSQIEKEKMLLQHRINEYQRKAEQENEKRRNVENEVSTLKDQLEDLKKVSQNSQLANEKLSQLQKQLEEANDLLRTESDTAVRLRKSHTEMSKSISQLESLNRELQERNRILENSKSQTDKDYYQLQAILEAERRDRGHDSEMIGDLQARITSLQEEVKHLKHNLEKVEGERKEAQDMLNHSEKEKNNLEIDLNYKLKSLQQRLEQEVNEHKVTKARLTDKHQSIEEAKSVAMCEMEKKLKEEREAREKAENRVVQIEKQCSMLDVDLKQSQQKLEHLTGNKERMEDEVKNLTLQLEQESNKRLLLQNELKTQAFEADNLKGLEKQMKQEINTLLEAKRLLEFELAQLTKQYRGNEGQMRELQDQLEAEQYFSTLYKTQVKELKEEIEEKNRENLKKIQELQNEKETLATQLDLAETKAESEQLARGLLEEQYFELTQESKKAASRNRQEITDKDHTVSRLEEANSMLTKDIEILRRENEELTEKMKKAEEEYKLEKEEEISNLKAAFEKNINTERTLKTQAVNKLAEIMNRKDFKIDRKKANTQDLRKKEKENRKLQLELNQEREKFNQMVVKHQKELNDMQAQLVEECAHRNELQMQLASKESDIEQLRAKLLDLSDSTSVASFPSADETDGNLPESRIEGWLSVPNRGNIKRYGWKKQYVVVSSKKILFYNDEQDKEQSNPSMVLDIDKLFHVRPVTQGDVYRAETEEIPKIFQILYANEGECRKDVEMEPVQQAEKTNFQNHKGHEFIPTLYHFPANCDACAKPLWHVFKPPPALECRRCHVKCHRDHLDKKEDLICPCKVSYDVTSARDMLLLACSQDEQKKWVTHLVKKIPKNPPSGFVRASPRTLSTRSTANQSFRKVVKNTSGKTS
Non-receptor tyrosine-protein kinase TYK2, sequence (P29597 whole entry): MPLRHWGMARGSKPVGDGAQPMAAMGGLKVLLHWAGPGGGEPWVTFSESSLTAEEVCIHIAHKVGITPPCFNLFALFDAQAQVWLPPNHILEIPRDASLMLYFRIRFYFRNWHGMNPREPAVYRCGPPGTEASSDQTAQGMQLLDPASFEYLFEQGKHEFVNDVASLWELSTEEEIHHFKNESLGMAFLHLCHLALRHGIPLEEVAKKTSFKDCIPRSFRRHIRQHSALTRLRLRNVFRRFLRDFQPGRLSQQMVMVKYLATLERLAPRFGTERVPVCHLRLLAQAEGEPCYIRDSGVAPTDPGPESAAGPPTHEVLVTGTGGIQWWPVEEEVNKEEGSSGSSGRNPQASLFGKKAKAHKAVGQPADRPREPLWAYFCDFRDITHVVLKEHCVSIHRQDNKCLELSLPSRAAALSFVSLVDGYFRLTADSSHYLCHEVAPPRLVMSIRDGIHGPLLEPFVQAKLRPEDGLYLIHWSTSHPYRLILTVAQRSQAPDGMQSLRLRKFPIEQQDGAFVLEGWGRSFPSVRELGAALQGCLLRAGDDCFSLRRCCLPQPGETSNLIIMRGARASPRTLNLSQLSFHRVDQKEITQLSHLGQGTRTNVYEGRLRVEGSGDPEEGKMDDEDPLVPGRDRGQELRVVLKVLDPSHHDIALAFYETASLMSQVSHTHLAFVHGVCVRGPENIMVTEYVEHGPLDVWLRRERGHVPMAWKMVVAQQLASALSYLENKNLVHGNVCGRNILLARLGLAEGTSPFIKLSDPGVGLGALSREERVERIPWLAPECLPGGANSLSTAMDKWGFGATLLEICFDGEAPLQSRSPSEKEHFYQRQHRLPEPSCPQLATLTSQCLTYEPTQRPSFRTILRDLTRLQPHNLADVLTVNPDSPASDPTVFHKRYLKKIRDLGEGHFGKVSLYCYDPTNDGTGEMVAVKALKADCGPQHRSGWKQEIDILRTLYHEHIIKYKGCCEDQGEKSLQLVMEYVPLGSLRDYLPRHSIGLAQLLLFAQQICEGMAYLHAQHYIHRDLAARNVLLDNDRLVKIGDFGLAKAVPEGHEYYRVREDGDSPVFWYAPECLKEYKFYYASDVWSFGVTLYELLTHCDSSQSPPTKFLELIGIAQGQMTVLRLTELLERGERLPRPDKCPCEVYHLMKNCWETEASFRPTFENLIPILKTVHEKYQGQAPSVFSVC
Ribosomal protein S6 kinase beta-2 (Homo sapiens), sequence (Q9UBS0 whole entry): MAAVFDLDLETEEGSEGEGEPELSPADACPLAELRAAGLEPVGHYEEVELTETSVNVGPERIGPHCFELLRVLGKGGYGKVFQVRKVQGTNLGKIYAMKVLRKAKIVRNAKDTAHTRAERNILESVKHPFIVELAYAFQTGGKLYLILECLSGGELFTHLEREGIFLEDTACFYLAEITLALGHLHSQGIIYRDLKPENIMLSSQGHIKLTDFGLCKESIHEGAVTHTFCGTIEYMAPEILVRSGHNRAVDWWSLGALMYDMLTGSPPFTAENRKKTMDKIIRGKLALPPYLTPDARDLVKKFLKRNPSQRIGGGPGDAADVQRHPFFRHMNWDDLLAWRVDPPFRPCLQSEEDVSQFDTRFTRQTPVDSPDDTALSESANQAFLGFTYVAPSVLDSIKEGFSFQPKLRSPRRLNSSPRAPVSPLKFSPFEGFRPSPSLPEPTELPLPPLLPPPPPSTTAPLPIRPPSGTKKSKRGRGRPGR

Compound: COc1cc(N(C)c2ccnc3ccc(C(F)(F)F)cc23)cc(OC)c1OC
- % binding [1]: 78%

Compound: C=CC(=O)Nc1ccc(C(=O)Nc2[nH]nc3c2CN(C(=O)N[C@H](CN(C)C)c2ccccc2)C3(C)C)cc1
- % of engagement [2]: -8.9%

Compound: CCN(CC)CCCCNc1ncc2cc(-c3cc(OC)cc(OC)c3)c(NC(=O)NC(C)(C)C)nc2n1
- % of control [3]: 100%
- % of control [4]: 100%

Compound: CC[C@@H]1[C@H](F)C(=O)N[C@@H]1COc1nccc2cc(C(N)=O)c(OC)cc12 [ZIMLOVISERTIB]
- % of inhibition [5]: 18.9%

Compound: O[C@H]1CC[C@H](Nc2ncc3nc(Nc4c(F)cc(F)cc4F)n([C@H]4CCOC4)c3n2)CC1
- % of control [6]: 97%

Compound: Cc1cc([C@@H](C)Nc2ccccc2C(=O)O)c2nc(N3CCOCC3)cc(=O)n2c1 [AZD-6482]
- % of control [7]: 89%
